The target in the assay is Human CYP17 (Homo sapiens (Human), UniProt P05093). Nature of the assay: CYP17 Total SPA Assay. Particulars: microsomes from HEK2 cells stably transfected with CYP17; 3H-Pregnenolone 1 uM, NADPH 2 mM; 45 minutes at room temperature. The format is biochemical. As for the experimental part:
The assays were performed in U-bottom 384-well optiplates. The final assay volume was 15 μl prepared from 7.5 μl additions of microsomes (prepared as a high-speed pellet from homogenized HEK2 cells stably transfected with CYP17), substrates (3H— Pregnenolone and NADPH) and test compounds in assay buffer (50 mM Potassium phosphate pH 7.2, 10% glycerol). The reaction was initiated by the combination of the microsomes and substrates in wells containing compound. The reaction was incubated at room temperature for 45 minutes and terminated by adding 7.5 μl of 0.2N HCl to each well. Following an incubation period of 10 minutes, anti-DHEA-coated SPA beads were added to the terminated reaction. The plate was sealed and incubated overnight with shaking at 4° C. The beads were allowed to settle in the plate for 1 hour and the plate read on a TOPCOUNT® (Perkin-Elmer) plate reader.
Inhibition data were calculated by comparison to no enzyme control reactions for 100% inhibition and vehicle-only reactions for 0% inhibition. The final concentration of reagents in the assays are NADPH, 2 mM; 3H-Pregnenolone, 1 uM; microsomes, 1.25 ug/ml; Anti-DHEA-SPA beads (0.125 mg/well) in 0.5% Triton X-100 and DMSO, 0.05%. Dose response curves were generated to determine the concentration required inhibiting 50% of enzyme activity (IC50). Compounds were dissolved at 10 mM in dimethylsulfoxide (DMSO) and evaluated at eleven concentrations, each in duplicate. IC50 values were derived by non-linear regression analysis.

Human CYP17, sequence (P05093 whole entry): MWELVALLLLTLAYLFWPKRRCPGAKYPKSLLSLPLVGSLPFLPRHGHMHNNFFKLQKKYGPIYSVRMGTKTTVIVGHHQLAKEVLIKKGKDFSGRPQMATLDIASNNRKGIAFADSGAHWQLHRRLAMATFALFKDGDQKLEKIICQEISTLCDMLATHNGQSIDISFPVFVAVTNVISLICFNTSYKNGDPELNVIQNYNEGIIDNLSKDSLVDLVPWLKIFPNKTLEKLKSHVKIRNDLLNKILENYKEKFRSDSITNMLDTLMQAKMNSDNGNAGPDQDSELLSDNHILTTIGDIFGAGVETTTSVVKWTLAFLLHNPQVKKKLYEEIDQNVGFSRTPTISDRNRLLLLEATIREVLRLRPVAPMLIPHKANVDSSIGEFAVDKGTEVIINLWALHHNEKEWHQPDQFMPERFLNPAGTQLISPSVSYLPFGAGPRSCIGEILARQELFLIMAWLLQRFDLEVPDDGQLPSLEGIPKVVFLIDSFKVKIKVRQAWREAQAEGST

For `Fc1ccc(-n2ncc3c(-c4cncc5ccccc45)ccnc32)cc1` [Example 1, 4-(1-(4-Fluorophenyl)-1H-pyrazolo[3,4-b]pyridin-4-yl)isoquinoline], the IC50 is 128 nM.

With `Fc1ccc(-n2ncc3c(-n4ccnc4)ccnc32)cc1` [Example 2, 1-(4-Fluorophenyl)-4-(1H-imidazol-1-yl)-1H-pyrazolo[3,4-b]pyridine], the IC50 was found to be 640 nM.

As for `Fc1ccc(-n2ncc3c(-c4cncc5ncccc45)ccnc32)cc1` [Example 3, 5-(1-(4-Fluorophenyl)-1H-pyrazolo[3,4-b]pyridin-4-yl)-1,7-naphthyridine], the IC50 stood at 41 nM.

Regarding `Cn1cncc1-c1ccnc2c1cnn2-c1ccc(F)cc1` [Example 4, 1-(4-Fluorophenyl)-4-(1-methyl-1H-imidazol-5-yl)-1H-pyrazolo[3,4-b]pyridine], the IC50 came to 50 nM.

Take `NS(=O)(=O)c1cccc(-n2ncc3c(-c4cncc5ncccc45)ccnc32)c1` [Example 5, 3-(4-(1,7-Naphthyridin-5-yl)-1H-pyrazolo[3,4-b]pyridin-1-yl)benzenesulfonamide]: the concentration for half-maximal inhibition (IC50) amounted to 206 nM.

Regarding `Cn1cncc1-c1ccnc2c1cnn2-c1cccc(S(N)(=O)=O)c1` [Example 6, 3-(4-(1-Methyl-1H-imidazol-5-yl)-1H-pyrazolo[3,4-b]pyridin-1-yl)benzenesulfonamide], the IC50 came out at 271 nM.

As to `NS(=O)(=O)c1cccc(-n2ncc3c(-c4cncc5ccccc45)ccnc32)c1` [Example 7, 3-(4-(Isoquinolin-4-yl)-1H-pyrazolo[3,4-b]pyridin-1-yl)benzenesulfonamide], the IC50 turned out to be 23 nM.

As to `Fc1ccc(-n2ncc3c(-c4cncn5cccc45)ccnc32)c(F)c1` [Example 8, 1-(2,4-Difluorophenyl)-4-(pyrrolo[1,2-c]pyrimidin-4-yl)-1H-pyrazolo[3,4-b]pyridine], the IC50 stood at 76 nM.

Source of the values: patent publication US9266880B2, “Substituted azaindazole compounds” (Bristol-Myers Squibb Company, priority 2010, dated 2016).
